Where a SMILES comes first, the peptide text is derived from it. [ ]: non-standard residue; d: D form. pGlu = O=C1CC[C@@H](C(=O)O)N1; dNle = CCCC[C@@H](N)C(=O)O; Aib = CC(C)(N)C(=O)O
Columns and labels:
hAPJ = molecular target: T1, hAPJ (Homo sapiens, UniProt P35414); assay: hAPJ Calcium Flux Assay; assay type: cell-based; conditions: Chem-5 APJ stable cells, FLIPR calcium flux stimulation; read-out: hAPJ Ca^2+ Flux EC50
T1 sequence (P35414 1-380): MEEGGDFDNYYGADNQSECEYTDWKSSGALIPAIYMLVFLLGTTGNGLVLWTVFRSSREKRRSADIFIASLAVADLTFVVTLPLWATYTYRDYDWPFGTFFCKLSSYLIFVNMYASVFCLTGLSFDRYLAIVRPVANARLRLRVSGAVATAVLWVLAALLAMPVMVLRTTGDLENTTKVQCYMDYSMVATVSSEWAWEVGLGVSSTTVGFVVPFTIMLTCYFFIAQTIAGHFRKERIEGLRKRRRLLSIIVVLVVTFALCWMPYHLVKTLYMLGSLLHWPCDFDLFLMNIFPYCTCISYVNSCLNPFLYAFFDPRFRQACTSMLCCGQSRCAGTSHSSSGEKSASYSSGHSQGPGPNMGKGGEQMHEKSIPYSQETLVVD
Method in brief: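 Chem-5 cells stably expressing APJ, loaded 1 h with Calcium 4 dye plus 2.5 mM probenecid at 37 °C. Peptides added at final […] in HBSS/HEPES/0.1% BSA, in triplicate.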

[1] = Surrogate Activity-Based Plasma Stability Assay; assay type: in vitro ADME; conditions: rat
Method: Stability half-life was then calculated by the formula, t½=0.693÷k Surrogate Activity-Based Plasma Stability Assay: […]
2) Calculate slope of value above and […]

[2] = Plasma Stability Assay (LC-MS); assay type: in vitro ADME; conditions: male, Sprague-Dawley, rat
Method: Plasma Stability Assay: Materials: Working solution: 1 mg/mL test article is prepared in Milli-Q water Extraction solution: Methanol:Acetonitrile:Water (1:1:1) with 0.1% Formic Acid and 400 ng/mL Glyburide. Plasma: Male Sprague-Dawley rat plasma (with sodium heparin), purchased from Bioreclamation LLC (Liverpool, N.Y.). Test article was prepared in one of the following biological matrices: heparinized rat plasma, heparinized rat whole blood or lung homogenate. […] Lung homogenate samples were prepared by diluting lung homogenate to 1 mg/ml protein concentration with phosphate buffered saline (PBS), followed by addition of 5 uL Working solution to 995 uL diluted lung homogenate. The samples were incubated at 37° C. with gentle shaking (65˜75 rpm) in a water bath incubator. […] Afterwards, a pipetting device (Tecan Temo) was used to tranfer the supernatants to another plate and add 50 uL of water to all samples. The plate was vortexed prior to LC-MS analysis. LC-MS Analysis of stability samples HPLC: Agilent 1290 HPLC with autosampler Column: MAC-MOD ACE C18, 3 μm, 30 mm×2.1 mm i.d. Mobile phase A: 0.1% Formic acid in acetonitrile Mobile phase B: 0.1% Formic acid in water Gradient Program: [table]

[3] = Surrogate Activity based Plasma stability t½
[4] = Surrogate activity-based Plasma stability t½

An EC50 (hAPJ) of 5 nM, a half-life [1, 3] of 12.2 h and a half-life [1, 4] of 12.2 h were found for CCCC[C@@H](NC(=O)[C@@H]1CCCN1C(=O)CNC(=O)[C@H](CCCCN)NC(=O)C(C)(C)NC(=O)[C@H](CO)NC(=O)[C@@H](CC(C)C)NC(=O)[C@H](CCCNC(=N)N)NC(=O)[C@@H]1CCCN1C(=O)[C@H](CCCNC(=N)N)NC(=O)[C@@H]1CCC(=O)N1)C(=O)N[C@H](C)C(=O)N[C@H](Cc1ccccc1)C(=O)O [Example 4, pE-R-P-R-(D-Leu)-S-Aib-K-G-P-nle-a-f-OH] ([pGlu]RPR[dL]S[Aib]KGP[dNle][dA][dF]-OH) in this work. The half-life at 5000 ng/mL [2] was 6.9 h.

An EC50 (hAPJ) of 8.8 nM, a half-life [1, 3] of 6.82 h and a half-life [1, 4] of 6.82 h were found for CCCC[C@@H](NC(=O)[C@@H]1CCCN1C(=O)CNC(=O)[C@H](CCCCN)NC(=O)[C@@H](Cc1c[nH]cn1)NC(=O)[C@@H](C)NC(=O)[C@H](CC(C)C)NC(=O)[C@H](CCCNC(=N)N)NC(=O)[C@@H]1CCCN1C(=O)[C@H](CCCNC(=N)N)NC(=O)[C@@H]1CCC(=O)N1)C(=O)N[C@H](C)C(=O)N[C@H](Cc1ccccc1)C(=O)O [Example 16, pE-R-P-R-L-a-h-K-G-P-nle-a-f-OH] in this work. It also gave a half-life at 5000 ng/mL [2] of 7.47 h.

— US8921307B2, “Synthetic linear apelin mimetics for the treatment of heart failure” (priority 2012, dated 2014)
